Reference: patent publication US12595275B2, “Fluorine-containing compound and anti-cancer medical use thereof” (ASCENTAWITS PHARMACEUTICALS, LTD., priority 2019, dated 2026)
Read-outs that look alike come from different tables or passages of the source.

How the values were obtained:
[1] = test system: H460 non-small cell lung cancer human tumor cell line; test: In vitro human tumor cell line cytotoxicity (proliferation) assay, H460; format: cell-based; details: NCI-H460, H460 cells, 2 hrs compound exposure, wash, additional 70 hrs incubation, AlamarBlue
Protocol: In vitro human tumor cell line cytotoxicity assays.
In vitro proliferation data on the H460 non-small cell lung cancer human tumor cell line is reported below in the compound table.
(§1) Specifically, exponentially growing cells were seeded at a density of 4×10^3 cells per well in a 96 well plate and incubated at 37° C. in 5% CO2, 95% air and 100% relative humidity for 24 hours prior to addition of test compounds. Compounds were solubilized in 100% DMSO at 200 times the desired final test concentration. At the time of drug addition, compounds were further diluted to 4 times the desired final concentration with complete medium. Aliquots of 50 μl of compound at specified concentrations were added to microtiter wells already containing 150 μl of medium, resulting in the final drug concentration reported. After drug addition, the plates were incubated for an additional 2 hours at 37° C., 5% CO2, 95% air, and 100% relative humidity, then the drug was washed off and fresh medium was added and the plates were incubated for addition 70 hrs at 37° C., 5% CO2, 95% air and 100% relative humidity. At the end of this incubation, the viable cells were quantified using the AlamarBlue assay.

[2] = test system: H460 cancer cells; test: H460 proliferation assay in the presence of the specific AKR1C3 enzyme inhibitor TH-3021; format: cell-based, human; details: AKR1C3 inhibitor TH-3021 at 3 micromolar, added two hours before compound treatment, read-out: IC50 (nM) obtained when the AKR1C3 inhibitor TH-3021 was added
Protocol: as §1
Similarly, in order to further verify that the compounds are activated by human AKR1C3 ([…] family 1 member C3), the effect of some of the compounds on the proliferation of H460 cancer cells was tested in the presence of a specific AKR1C3 enzyme inhibitor (at 3 micromolar concentration). The inhibitor-added compound solution was added to the cell culture two hours before the treatment with the compound. The inhibitor used was compound 36, i.e.,
[drawing 17] (TH-3021) in Flanagan et al., Bioorganic and Medicinal Chemistry (2014), pages 962-977.

SMILES | IC50 [1] [µM] | IC50 [2] [nM] | IC50 ([2]; Homo sapiens, NCI-H460, 2 h) [nM]
O=C(c1ccc(Oc2cc(C(OP(=O)(N3CC3)N3CC3)C(F)(F)F)ccc2[N+](=O)[O-])cc1)N1CCCCC1 (stereo not shown) [Compound No. 28] | 0.00236 | 649 | 
Cn1ncc2cc(Oc3cc(C(OP(=O)(N4CC4)N4CC4)C(F)(F)F)ccc3[N+](=O)[O-])ccc21 (stereo not shown) [Compound No. 43] | 0.0304 | 102 | 
O=[N+]([O-])c1ccc(C(OP(=O)(N2CC2)N2CC2)C(F)(F)F)cc1Oc1ccc(C(F)(F)F)cc1 (stereo not shown) [Compound No. 7] | 0.0256 | > 1000 | 
O=C(c1cccc(Oc2cc(C(OP(=O)(N3CC3)N3CC3)C(F)(F)F)ccc2[N+](=O)[O-])c1)N1CCC(C(F)(F)F)CC1 (stereo not shown) [Compound No. 25] | 0.00186 | 179 | 
O=[N+]([O-])c1ccc(C(OP(=O)(N2CC2)N2CC2)C(F)(F)F)cc1Oc1cccc(-c2ccc(F)cc2)c1 (stereo not shown) [Compound No. 14] | 0.03 | > 1000 | 
O=[N+]([O-])c1ccc(COc2c(F)c(F)c(COP(=O)(N3CC3)N3CC3)c(F)c2F)cc1Oc1ccc(C(F)(F)F)cc1 [Compound No. 8] | 0.000526 | > 1000 | 
O=[N+]([O-])c1ccc(C(OP(=O)(N2CC2)N2CC2)C(F)(F)F)cc1Oc1ccc(F)c(C(F)(F)F)c1 (stereo not shown) [Compound No. 12] | 0.0873 | > 1000 | 
CN(C)C(=O)c1ccc(Oc2cc(COc3c(F)cc(COP(=O)(N4CC4)N4CC4)cc3F)ccc2[N+](=O)[O-])cc1 [Compound No. 1] | 0.00197 | 460 | 
O=[N+]([O-])c1ccc(C(OP(=O)(N2CC2)N2CC2)C(F)(F)F)cc1Oc1ccc(C2CCCC2)cc1 (stereo not shown) [Compound No. 47] | 0.00813 |  | 
O=C(c1cccc(Oc2cc(C(OP(=O)(N3CC3)N3CC3)C(F)(F)F)ccc2[N+](=O)[O-])c1)N1CCC(F)(F)CC1 (stereo not shown) [Compound No. 22] | 0.00137 | 139 | 
O=C(c1ccc(Oc2cc(C(OP(=O)(N3CC3)N3CC3)C(F)(F)F)ccc2[N+](=O)[O-])cc1)N1CCC(c2ccccc2)CC1 (stereo not shown) [Compound No. 30] | 0.0799 | > 1000 | 
N#Cc1cccc(Oc2cc(COc3c(F)cc(COP(=O)(N4CC4)N4CC4)cc3F)ccc2[N+](=O)[O-])c1 [Compound No. 39] | 0.00779 | 137 | 
CC1(C)CCN(C(=O)c2cccc(Oc3cc(C(OP(=O)(N4CC4)N4CC4)C(F)(F)F)ccc3[N+](=O)[O-])c2)CC1 (stereo not shown) [Compound No. 24] | 0.00432 | > 1000 | 
O=[N+]([O-])c1ccc(C(OP(=O)(N2CC2)N2CC2)C(F)(F)F)cc1Oc1ccc(-c2ccc(C(F)(F)F)cc2)nc1 (stereo not shown) [Compound No. 19] | 0.313 | > 1000 | 
O=[N+]([O-])c1ccc(C(OP(=O)(N2CC2)N2CC2)C(F)(F)F)cc1Oc1ccc(-c2ccc(F)cc2)nc1 (stereo not shown) [Compound No. 18] | 0.0355 | > 1000 | 
O=[N+]([O-])c1ccc(C(OP(=O)(N2CC2)N2CC2)C(F)(F)F)cc1Oc1ccc(C2CCC(F)(F)CC2)cc1 (stereo not shown) [Compound No. 49] | 0.00961 | > 1000 | 
O=[N+]([O-])c1ccc(C(OP(=O)(N2CC2)N2CC2)C(F)(F)F)cc1Oc1ccc(-c2ccc(F)cc2)c(F)c1 (stereo not shown) [Compound No. 16] | 0.00678 | > 1000 | 
CN(C)C(=O)c1ccc(Oc2cc(C(OP(=O)(N3CC3)N3CC3)C(F)(F)F)ccc2[N+](=O)[O-])cc1 (stereo not shown) [Compound No. 27] | 0.00932 | > 1000 | 
O=[N+]([O-])c1ccc(COc2c(F)cc(COP(=O)(N3CC3)N3CC3)cc2F)cc1Oc1ccc(C(F)(F)F)cc1 [Compound No. 4] | 0.00931 | > 1000 | 
O=[N+]([O-])c1ccc(C(OP(=O)(N2CC2)N2CC2)C(F)(F)F)cc1Oc1ccc(-c2ccc(F)cn2)cc1 (stereo not shown) [Compound No. 20] | 0.0468 | > 1000 | 
CN(C)C(=O)c1ccc(Oc2cc(COc3cc(F)c(COP(=O)(N4CC4)N4CC4)cc3Cl)ccc2[N+](=O)[O-])cc1 [Compound No. 34] | 0.0385 | > 1000 | 

SMILES | IC50 [1] [µM] | IC50 [2] [nM] | IC50 ([2]; Homo sapiens, NCI-H460, 2 h) [nM]
O=C(c1cccc(Oc2cc(COc3c(F)cc(COP(=O)(N4CC4)N4CC4)cc3F)ccc2[N+](=O)[O-])c1)N1CC(F)(F)C1 [Compound No. 38] | 0.00553 | 267 | 
O=C(c1cccc(Oc2cc(C(OP(=O)(N3CC3)N3CC3)C(F)(F)F)ccc2[N+](=O)[O-])c1)N1CCC(O)CC1 (stereo not shown) [Compound No. 26] | 0.0012 | 175 | 
O=[N+]([O-])c1ccc(C(OP(=O)(N2CC2)N2CC2)C(F)(F)F)cc1Oc1ccc(-c2ccc(F)cc2)cc1 (stereo not shown) [Compound No. 9] | 0.0185 | > 1000 | 
N#Cc1ccc(Oc2cc(COc3c(F)cc(COP(=O)(N4CC4)N4CC4)cc3F)ccc2[N+](=O)[O-])cc1 [Compound No. 37] | 0.0123 | 136 | 
O=[N+]([O-])c1ccc(C(OP(=O)(N2CC2)N2CC2)C(F)(F)F)cc1Oc1ccc(C2CCCCC2)cc1 (stereo not shown) [Compound No. 48] | 0.0037 |  | 
CN(C)C(=O)c1cccc(Oc2cc(COc3c(F)c(F)c(COP(=O)(N4CC4)N4CC4)c(F)c3F)ccc2[N+](=O)[O-])c1 [Compound No. 3] | 0.000417 | > 1000 | 
O=C(c1cccc(Oc2cc(COc3c(F)cc(COP(=O)(N4CC4)N4CC4)cc3F)ccc2[N+](=O)[O-])c1)N1CC(F)C1 [Compound No. 36] | < 0.00437 | 238 | 
O=C(c1cccc(Oc2cc(C(OP(=O)(N3CC3)N3CC3)C(F)(F)F)ccc2[N+](=O)[O-])c1)N1CCCC1 (stereo not shown) [Compound No. 23] | 0.00604 | 795 | 
O=C(c1cccc(Oc2cc(C(OP(=O)(N3CC3)N3CC3)C(F)(F)F)ccc2[N+](=O)[O-])c1)N1CCCCC1 (stereo not shown) [Compound No. 21] | 0.00698 | 176 | 
O=[N+]([O-])c1ccc(C(OP(=O)(N2CC2)N2CC2)C(F)(F)F)cc1Oc1ccc2ncccc2c1 (stereo not shown) [Compound No. 40] | 0.0147 | > 1000 | 
O=[N+]([O-])c1ccc(C(OP(=O)(N2CC2)N2CC2)C(F)(F)F)cc1Oc1ccc(-c2ccc(F)cc2F)c(F)c1 (stereo not shown) [Compound No. 17] | 0.00726 | > 1000 | 
O=[N+]([O-])c1ccc(C(OP(=O)(N2CC2)N2CC2)C(F)(F)F)cc1Oc1ccc(-c2ccc(F)cc2F)cc1 (stereo not shown) [Compound No. 15] | 0.0114 |  | > 1000
CN(C)C(=O)c1cccc(Oc2cc(C(OP(=O)(N3CC3)N3CC3)C(F)(F)F)ccc2[N+](=O)[O-])c1 (stereo not shown) [Compound No. 6] | 0.00127 | 813 | 
O=[N+]([O-])c1ccc(C(OP(=O)(N2CC2)N2CC2)C(F)(F)F)cc1Oc1ccc(OC(F)(F)F)cc1 (stereo not shown) [Compound No. 11] | 0.137 | > 1000 | 
CN(C)C(=O)c1ccc(Oc2cc(COc3c(F)c(F)c(COP(=O)(N4CC4)N4CC4)c(F)c3F)ccc2[N+](=O)[O-])cc1 [Compound No. 2] | 0.000352 | > 1000 | 
O=[N+]([O-])c1ccc(C(OP(=O)(N2CC2)N2CC2)C(F)(F)F)cc1Oc1cnc2ccccc2c1 (stereo not shown) [Compound No. 13] | 0.0423 | > 1000 | 
O=[N+]([O-])c1ccc(C(OP(=O)(N2CC2)N2CC2)C(F)(F)F)cc1Oc1ccc(-c2ccccc2)cc1 (stereo not shown) [Compound No. 44] | 0.00942 | > 1000 | 
Cc1nc2ccc(Oc3cc(C(OP(=O)(N4CC4)N4CC4)C(F)(F)F)ccc3[N+](=O)[O-])cc2s1 (stereo not shown) [Compound No. 42] | 0.0293 | > 1000 | 
O=C(c1ccc(Oc2cc(C(OP(=O)(N3CC3)N3CC3)C(F)(F)F)ccc2[N+](=O)[O-])cc1)N1CCC(C(F)(F)F)CC1 (stereo not shown) [Compound No. 29] | 0.0601 | > 1000 | 
CN(C(=O)c1ccc(Oc2cc(C(OP(=O)(N3CC3)N3CC3)C(F)(F)F)ccc2[N+](=O)[O-])cc1)c1ccccc1 (stereo not shown) [Compound No. 41] | 0.00254 | 341 | 
O=[N+]([O-])c1ccc(COc2c(F)cc(COP(=O)(N3CC3)N3CC3)cc2F)cc1Oc1ccc(Cl)nc1 [Compound No. 5] | 0.00587 | 228 | 
